# Assay results published in patent US20100076022A1, “NOVEL POLYMORPHS OF RIMONABANT” (HETERO DRUGS LIMITED, priority 2006, published 2010).
# How the values were obtained:
# [1] = dissolution rate of the solid form; assay type: physicochemical; conditions: amorphous form compared with crystalline form; test conditions not given
# [2] = stability of the solid form over time; assay type: physicochemical; conditions: test conditions not given
dissolution rate [1],stability [2],SMILES
better dissolution rate,highly stable,Cc1c(C(=O)NN2CCCCC2)nn(-c2ccc(Cl)cc2Cl)c1-c1ccc(Cl)cc1 [amorphous rimonabant form]
,stable over time,Cc1c(C(=O)NN2CCCCC2)nn(-c2ccc(Cl)cc2Cl)c1-c1ccc(Cl)cc1.O [crystalline rimonabant hydrate]
